From patent US20230346883A1, “COMPOSITIONS FOR AND METHODS OF TREATMENT WITH MUTANT A1 ADENOSINE RECEPTOR PLASMID cDNAs” (Endacea, Inc., priority 2022, published 2023)

Tested on: PC3 Tumors (Human Prostate Carcinoma)
Assay: Treatment of PC3 xenograft tumors in athymic nude mice, tumor volume
Format: in vivo
Conditions: dosed twice/week
Method: • 1. Animals: • 46 Athymic nude mice (ENVIGO, male, 5-6 weeks old, R #: 4269, PO #: 236172) were used in this study. All mice were ear tagged for identification purposes. • 2. Animal Husbandry: • Upon arrival, animals were examined to ensure that they were healthy. The animals were housed in autoclaved solid floor polycarbonate cages. Housing and sanitation were performed. All animal handling was performed in a laminar flow hood. Animals were housed in filter-topped cages within a HEPA filtered clean room. • 3. Cell Culture and Implantation: • PC3 cell line was obtained from American Type Culture Collection (Manassas, VA). The cells were cultured in 75 cm^2 flask containing Eagle's Minimum Essential Medium supplemented with 10% fetal bovine calf serum (FBS) and incubated at 37° C. in humidified atmosphere of 5% CO2. As cells became 80% confluent, cultures were expanded to 150 cm^2 flasks, and expanded further until sufficient cells were available for injection. • Cancer cells were subcutaneously injected into right flank, 10 million cells/each mouse for PC3 cells. • 4. Assignment to Treatment Groups: • The animals were ear tagged for identification purposes. The animals were assigned to 4 study groups with 10 mice in each group based upon tumor volume. • 5. The mice were dosed twice a week for 6 weeks.
The Paclitaxel was stored at ambient temperature. Lipid nanoparticle (LNP) suspensions were stored at 4° C. Unopened vials were maintained in their original container at 4° C. until ready for use. 50 μl of LNP treatment was drawn via large bore needle (16G needle) from vial. All LNP treatments were allowed to reach room temperature by standing at ambient temperature. There was no heating. The large bore needle was replaced with a small-bore needle (25G) for tumor injection. • 6. Tumor Monitoring: • The xenograft tumors were measured three times a week with a digital caliper. • Tumor volumes were calculated using the formula:
Tumor Volume=length×width×width×½ • 7. Statistical Analysis: • Tumor sizes and body weights were analyzed using Student's t-test. P values <0.05 were considered as statistically significant.

Structure (SMILES): CC(=O)O[C@H]1C(=O)[C@@]2(C)[C@H]([C@H](OC(=O)c3ccccc3)[C@]3(O)C[C@H](OC(=O)[C@H](O)[C@@H](NC(=O)c4ccccc4)c4ccccc4)C(C)=C1C3(C)C)[C@]1(OC(C)=O)CO[C@@H]1C[C@@H]2O [Paclitaxel]
- Average Tumor Volume (Mean) (therapy day 0): 108.0 Mm^3
- Average Tumor Volume (Mean) (therapy day 3): 105.7 Mm^3
- Average Tumor Volume (Mean) (therapy day 5): 111.7 Mm^3
- Average Tumor Volume (Mean) (therapy day 7): 129.6 Mm^3
- Average Tumor Volume (Mean) (therapy day 10): 108.4 Mm^3
- Average Tumor Volume (Mean) (therapy day 12): 98.1 Mm^3
- Average Tumor Volume (Mean) (therapy day 14): 84.2 Mm^3
- Average Tumor Volume (Mean) (therapy day 17): 66.6 Mm^3
- Average Tumor Volume (Mean) (therapy day 19): 61.8 Mm^3
- Average Tumor Volume (Mean) (therapy day 21): 56.6 Mm^3
- Average Tumor Volume (Mean) (therapy day 24): 48.7 Mm^3
- Average Tumor Volume (Mean) (therapy day 26): 34.6 Mm^3
- Average Tumor Volume (Mean) (therapy day 28): 31.1 Mm^3
- Average Tumor Volume (Mean) (therapy day 31): 26.6 Mm^3
- Average Tumor Volume (Mean) (therapy day 35): 25.3 Mm^3
- Average Tumor Volume (Mean) (therapy day 38): 24.4 Mm^3
- Average Tumor Volume (Mean) (therapy day 40): 24.2 Mm^3
- Average Tumor Volume (Mean) (therapy day 42): 27.2 Mm^3
- Average Tumor Volume (Mean) (therapy day 45): 17.8 Mm^3
